EP3587389A1 (INSTYTUT FARMACEUTYCZNY, priority 2018, dated 2020)

Tests used:
[1] = DPPH free radical scavenging assay; conditions: for IC50: 30 min at room temperature, absorbance at 517 nm; for scavenging abilities (in words): DPPH assay
Experimental: J Nat Prod. 2010 Feb 26; 73(2): 252-4. doi: 10.1021/np900519d.) with a modification. Briefly, different concentrations of the compounds (100 µl) were mixed with 900 µl of the 0.04 mg/ml methanolic solution of DPPH. The mixture was kept at room temperature for 30 min, and then the absorbance at 517 nm was measured. The half maximal inhibitory concentration (IC50) was used as an indicating measure of the scavenging activity.

[2] = Oxidation inhibition of the o/w emulsion (lipid peroxidation, TBARS); conditions: for o/w emulsion (Inhibition of the oxidation (%)) / o/w emulsion (Inhibition of the oxidation), footnoted symbol: determined at 100 µM, flaxseed oil emulsion, oxidation induced with Mohr's salt, TBARS; for protection against the induced oxidation (in words): o/w emulsion model
Experimental: The emulsion was prepared according to the method described in Zarnowski R. et al., The oil of Adenanthera pavonina L. seeds and its emulsions. Z Naturforsch C. 2004;59(5-6):321-326; Jaromin A. et al., Emulsions of oil from Adenanthera pavonina L. seeds and their protective effect Cell Mol Biol Lett 2006; 11(3): 438-448). Briefly, 15 mg of sorbitan sesquioleate was added to 50 mg of flaxseed oil and vigorously mixed for 20 min. Then, 2 ml of an aqueous phase consisting of 10 mM Tris-HCl buffer, pH 7.4, was added. The sample was further vortexed for 15 min. and sonicated (Sonics & Materials Inc., Newton, CT, USA) for 10 min. in a coldwater bath. Then, 20 µl of the 1:1 (v/v) buffer diluted emulsion, methanolic solution of each compound (final concentration 100 µM) and 10 mM Tris-HCl buffer, pH 7.4, were mixed and incubated at room temperature for 10 min. To induce oxidation, 100 µl of freshly prepared aqueous solution of ammonium iron(II) sulfate hexahydrate (Mohr's salt) (5 mM) was added (total volume of the sample was 1 ml) and the samples were incubated at room temperature for 15 min. Flaxseed oil emulsion without any compound addition was included as control. After the oxidation step, determination of the thiobarbituric acid reacting substances (TBARS) was performed (Buege J.A., Aust S.D., Microsomal lipid peroxidation. Methods Enzymol. 1978;52:302-310). 2 ml of the thiobarbituric acid (TBA) reagent (15% trichloroacetic acid, 0.25 N HCl and 0.5% TBA) was added to each sample, mixed and heated at 100°C for 30 min. After centrifugation at 13 000 rpm for 10 min, the absorbance of the supernatants was measured at 535 nm. The obtained values were used to calculate the % of the oxidation inhibition according to the following equation: Inhibition of the oxidation (%) = [1−(absorbance of the sample/absorbance of control)] × 100 [formula]

Row | Compound | IC50 [1] [µM] | o/w emulsion (Inhibition of the oxidation (%)) [2] [%] | scavenging abilities (in words) [1] | o/w emulsion (Inhibition of the oxidation), footnoted symbol [2] | protection against the induced oxidation (in words) [2]
1 | O=C(O)/C=C/c1ccc(O)c(O)c1 [CA, Caffeic acid] | 32.2 | 26.1 ± 2.9 | – | – | –
2 | CC(=O)/C=C/c1ccccc1O [Compound 6, 4-(2'-hydroxyphenyl)-3(E)-buten-2-one] | > 5000 | – | no scavenging abilities | n.a.^b (no protection detected) | –
3 | COC(=O)/C=C/c1ccc(O)cc1 [Compound 8, 3-(4'-Hydroxyphenyl)-(E)-propenoic acid methyl ester] | > 5000 | 22.7 ± 6.4 | no scavenging abilities | – | –
4 | COC(=O)/C=C/c1ccccc1O [Compound 9, 3-(2'-Hydroxyphenyl)-(E)-propenoic acid methyl ester] | > 5000 | 2.6 ± 1.5 | no scavenging abilities | – | –
5 | COC(=O)/C=C/c1cccc(O)c1 [Compound 10, 3-(3'-Hydroxyphenyl)-(E)-propenoic acid methyl ester] | > 5000 | 18.4 ± 2.2 | no scavenging abilities | – | –
6 | COC(=O)/C=C/c1ccc(O)cc1O [Compound 11, 3-(2',4'-dihydroxyphenyl)-(E)-propenoic acid methyl ester] | 1020 | 33.7 ± 6.5 | – | – | –
7 | COC(=O)/C=C/c1ccc(O)c(O)c1O [Compound 12, 3-(2',3',4'-trihydroxyphenyl)-(E)-propenoic acid methyl ester] | 18.6 | 55.5 ± 2 | – | – | highest protection against the induced oxidation
8 | COC(=O)/C=C/c1cc(O)c(O)cc1O [Compound 13, 3-(2',4',5'-trihydroxyphenyl)-(E)-propenoic acid methyl ester] | 53.3 | 38.6 ± 2.3 | – | – | highest protection against the induced oxidation
9 | COC(=O)/C=C/c1ccc(O)c(OC)c1 [Compound 14, 3-(4'-hydroxy-3-metoxyphenyl)-(E)-propenoic acid methyl ester] | 58.9 | 14.8 ± 2 | – | – | –
10 | CC(=O)/C=C/c1cccc(O)c1 [Compound 15, 4-(3'-hydroxyphenyl)-3(E)-buten-2-one] | – | – | no scavenging abilities | n.a.^b (no protection detected) | –
11 | CC(=O)/C=C/c1ccc(O)cc1 [Compound 16, 4-(4'-hydroxyphenyl)-3(E)-buten-2-one] | > 5000 | 6.8 ± 4.4 | no scavenging abilities | – | –
12 | CC(=O)/C=C/c1ccc(O)cc1O [Compound 17, 4-(2',4'-dihydroxyphenyl)-3(E)-buten-2-one] | 688 | 4.6 ± 1.3 | – | – | –
13 | CC(=O)/C=C/c1ccc(O)c(O)c1O [Compound 18, 4-(2',3',4'-trihydroxyphenyl)-3(E)-buten-2-one] | 16.8 | 28.6 ± 4 | – | – | highest protection against the induced oxidation
14 | COc1cc(/C=C/C(C)=O)ccc1O [Compound 20, 4-(3'-methoxy-4'-hydroxyphenyl)-3(E)-buten-2-one] | 61.8 | 7.9 ± 2.1 | – | – | –
